Experimental data published in patent publication US20250186326A1, “Anti-Aging Compositions” (PROGELIFE, priority 2022, published 2025).

tested on: farnesylation of prelamin A; assay: Western blot of prelamin A in human skin fibroblasts (inhibition of farnesylation); type: cell-based; conditions: controls: alendronate and/or pravastatin 10 μM without tested compound; human skin fibroblasts AG13334, 72 h; Ritonavir 4 μM and Lopinavir 20 μM added
Experimental: (§1) Control Human fibroblast from skin (AG13334) were obtained from Coriell Institute. Cells were maintained in culture according to supplier information at 37° C. in a humidified atmosphere containing 5% CO2.
(§2) Fibroblasts were cultured 72 h without culture-media renewal.
(§3) Pravastatin/Compound II.3a • 14. Pravastatin/Compound II.2 • 15. Pravastatin/Compound I.12 • 16. Pravastatin/Compound II.5
(§4) Ritonavir (4 μM) and Lopinavir (20 μM) were added in all tested conditions to improve the lower limit of detection of prenylated prelamin A in western blots.
(§5) Total fibroblast proteins were extracted after 72 hours treatment in 100 μl of NP40 (Invitrogen) with 1× protease and phosphatase inhibitor cocktail (Life Technologies). Lysates were incubated on ice for 30 minutes, with vortexing at 10-minute intervals. Finally, they were sonicated four times (20 sec each) and then centrifuged at 13000 rpm for 10 minutes at 4° C.
(§6) Protein concentrations were determined with the BCA™ Protein Assay (Life Technologies).
(§7) The following antibodies were used in this study: rabbit monoclonal anti-lamin A/C (ab108922, 1/1000, Abcam, Amsterdam, Netherlands), mouse monoclonal anti-prelamin A (MABT858, Millipore, Molsheim, France), mouse monoclonal anti-HDJ2 (MA5-12748, Thermoscientific, France). Secondary antibodies conjugated with IR-Dye 800CW or 680 were used according to the manufacturer's instructions (926-32213 and 926-68072, 1/5000, Li-COR Biosciences).
(§8) Protein lysates were separated on NuPAGE™ Novex™ 8% Bis-Tris Midi Protein Gels (Life Technologies) and transferred to Immobilon-FL PVDF membranes (Millipore, Molsheim, France). Membranes were blocked for one hour in 1:1 diluted blocking buffer for near fluorescent western blotting (Rockland, Le Perray, France). Blocked membranes were incubated with primary antibody anti-prelamin A overnight at 4° C., following which they were washed and incubated with conjugated secondary antibody for one hour at room temperature. Then, this step was repeated with primary antibodies for HDJ2 and LMNA/C, and conjugated secondary antibodies.
(§9) Bound antibodies were detected and analyzed on an Odyssey imaging system (Li-COR Biosciences, Bad Homburg, Germany) according to the manufacturer's instructions. Revert Protein Stain (Li-COR Biosciences) was used as a total protein loading control.

Row | Compound | prelamin A band (western blot, FIG. 1)
1 | NCCCC(O)(P(=O)(O)O)P(=O)(O)O [alendronate, reference compound] | essentially absent

same assay, conditions: tested compound combined with Alendronate 10 μM; human skin fibroblasts AG13334, 72 h; Ritonavir 4 μM and Lopinavir 20 μM added

Row | Compound | prelamin A band (western blot, FIG. 1)
2 | Oc1ccc(/C=C/c2cc(O)cc(O)c2)cc1 [Compound I.1a] | Clear bands
3 | COc1ccc([C@@H]2CC(=O)c3c(O)cc(O[C@@H]4O[C@H](CO)[C@@H](O)[C@H](O)[C@H]4O[C@@H]4O[C@@H](C)[C@H](O)[C@@H](O)[C@H]4O)cc3O2)cc1O [Compound I.7a] | Clear bands
4 | O=c1c2cc(O)c(O)cc2oc2cc(O)c([C@@H]3O[C@H](CO)[C@@H](O)[C@H](O)[C@H]3O)c(O)c12 [Compound I.6a] | Clear bands
5 | C[C@@H]1O[C@@H](O[C@H]2[C@H](Oc3cc(O)c4c(c3)O[C@H](c3ccc(O)cc3)CC4=O)O[C@H](CO)[C@@H](O)[C@@H]2O)[C@H](O)[C@H](O)[C@H]1O [Compound I.8a] | Clear bands

same assay, conditions: tested compound combined with Pravastatin 10 μM; human skin fibroblasts AG13334, 72 h; Ritonavir 4 μM and Lopinavir 20 μM added

Row | Compound | prelamin A band (western blot, FIG. 1)
6 | O=c1cc(-c2ccc(O)cc2)oc2cc(O)cc(O)c12 [Compound II.1] | Clear bands
7 | O=c1c(O)c(-c2ccc(O)c(O)c2)oc2cc(O)cc(O)c12 [Compound II.5] | Clear bands
8 | O=C1c2cccc(O)c2C(=O)c2c(O)cc(CO)cc21 [Compound II.2] | Clear bands
9 | OC[C@H]1O[C@@H](OCCc2ccc(O)cc2)[C@H](O)[C@@H](O)[C@@H]1O [Compound I.12] | Clear bands
10 | Oc1cc(O)c2c(c1)O[C@H](c1ccc(O)c(O)c1)[C@@H](O)C2 [Compound II.3a] | Clear bands

tested on: wrinkles/fine lines; assay: not given; conditions: 3 ppm pal-KTTKS in moisturizer, topical, 12 weeks, split-face; cited from earlier work

Row | Compound | reduction in wrinkles/fine lines vs. placebo control (quantitative technical and expert grader image analysis)
11 | palmitoyl-lysine-threonine-threonine-lysine-serine [pal-KTTKS] | significant improvement

tested on: farnesylation of HDJ2; assay: Western blot of unfarnesylated HDJ2 in human skin fibroblasts (inhibition of farnesylation); type: cell-based; conditions: controls: alendronate and/or pravastatin 10 μM without tested compound; human skin fibroblasts AG13334, 72 h; Ritonavir 4 μM and Lopinavir 20 μM added
Experimental: as §1, §2, §3, §4, §5, §6, §7, §8, §9

Row | Compound | unfarnesylated HDJ2 band (western blot, FIG. 1)
12 | NCCCC(O)(P(=O)(O)O)P(=O)(O)O [alendronate, reference compound] | essentially absent

same assay, conditions: tested compound combined with Alendronate 10 μM; human skin fibroblasts AG13334, 72 h; Ritonavir 4 μM and Lopinavir 20 μM added

Row | Compound | unfarnesylated HDJ2 band (western blot, FIG. 1)
13 | Oc1ccc(/C=C/c2cc(O)cc(O)c2)cc1 [Compound I.1a] | Clear bands
14 | COc1ccc([C@@H]2CC(=O)c3c(O)cc(O[C@@H]4O[C@H](CO)[C@@H](O)[C@H](O)[C@H]4O[C@@H]4O[C@@H](C)[C@H](O)[C@@H](O)[C@H]4O)cc3O2)cc1O [Compound I.7a] | Clear bands
15 | O=c1c2cc(O)c(O)cc2oc2cc(O)c([C@@H]3O[C@H](CO)[C@@H](O)[C@H](O)[C@H]3O)c(O)c12 [Compound I.6a] | Clear bands
16 | C[C@@H]1O[C@@H](O[C@H]2[C@H](Oc3cc(O)c4c(c3)O[C@H](c3ccc(O)cc3)CC4=O)O[C@H](CO)[C@@H](O)[C@@H]2O)[C@H](O)[C@H](O)[C@H]1O [Compound I.8a] | Clear bands

same assay, conditions: tested compound combined with Pravastatin 10 μM; human skin fibroblasts AG13334, 72 h; Ritonavir 4 μM and Lopinavir 20 μM added

Row | Compound | unfarnesylated HDJ2 band (western blot, FIG. 1)
17 | O=c1cc(-c2ccc(O)cc2)oc2cc(O)cc(O)c12 [Compound II.1] | Clear bands
18 | O=c1c(O)c(-c2ccc(O)c(O)c2)oc2cc(O)cc(O)c12 [Compound II.5] | Clear bands
19 | O=C1c2cccc(O)c2C(=O)c2c(O)cc(CO)cc21 [Compound II.2] | Clear bands
20 | OC[C@H]1O[C@@H](OCCc2ccc(O)cc2)[C@H](O)[C@@H](O)[C@@H]1O [Compound I.12] | Clear bands
21 | Oc1cc(O)c2c(c1)O[C@H](c1ccc(O)c(O)c1)[C@@H](O)C2 [Compound II.3a] | Clear bands
